From US4584187A, “Imaging agent and method of use” (priority 1981, dated 1986)
Where two headings read alike, the source gives them in different places.

Experiments:
[1] = parameters: species or system rats; details: rat, in vivo, iv, 30 min
Description: (§1) Biological tissue distribution studies were performed on rats, dogs and monkeys injected intravenously with 25 μCi and 100 μCi respectively of I-125 iodobenzylguanidine in an average volume of 0.3 ml, 2 ml, and 1 ml respectively. Representative samples of tissues were counted in an autogamma counter with corrections made for radioactive decay, background, and counter efficiency. To normalize for differences in animal weights, tissue concentrations are expressed as percent kilogram dose per gram.

[2] = Biological tissue distribution of I-125 iodobenzylguanidine in dogs; assay type: in vivo, Female Mongrel Dogs
Description: as §1

[3] = parameters: species or system Rhesus Monkeys; details: rhesus monkey, in vivo, iv, 180 min
Description: as §1

Pheochromocytomas (PHEO) = test: Scintigraphic localization of pheochromocytomas with I-131-mIBG in patients and controls; assay type: in vivo, human
Description: Pheochromocytomas (PHEO) were localized with I-131-meta-iodobenzylguanidine(^131 I-mIBG). Five hypertensive patients without PHEO served as controls. I-131-mIBG, 0.5 mCi, was given i.v. Images of areas of interest were made at 24, 48 and 72 hours post-injection. Adrenal (tumor) uptake was estimated with a semioperator-independent computer algorithm. All patients with sporadic PHEO gave clinical and hormonal evidence of their disease.

adrenal medulla = test: MIBG adrenal imaging in MEN-2 patients; assay type: in vivo, human; details: for MIBG Adrenal Imaging: 1 and 2 days
Description: To display adrenal medullary abnormalities, 500 μCi of ^131 I-mIBG was injected into 6 patients from 5 families with MEN-2 and scintiscans were performed 1 and 2 days later. Percent administered dose uptake was calculated using a semioperator independent algorithm. Adrenal medullary function was assessed by plasma norepinephrine (N) and epinephrine (E) and urinary N, E, metanephrine (M), and normetanephrine (NM) levels.

[4] = Stability of radiolabeled compound on storage in solution; assay type: physicochemical; details: 4° C., dark
Excerpt: The radiochemical purity was greater than 98% as determined by thin-layer chromotography on silica gel G using two solvent systems: (1) 1/l ethyl acetate: ethanol (Rf=0.0; Rf of free radioiodide=0.60); (2) 3/l n-propanol: 10% ammonium hydroxide (Rf=0.15, Rf of free radioiodide=0.75, Rf of meta-iodobenzylamine=0.35). […] Final […].

[5] = system: adrenergic neurons of the heart and chromaffin granules of the adrenal medulla; test: Localization in adrenergic tissues; assay type: in vivo

N=C(N)NCc1cccc([125I])c1 [I-125 iodobenzylguanidine]
Tissue concentration, Blood (Mean ± S.E.M.) [1]: .03 ± .00 % Kg Dose/g | Tissue concentration, Heart (Mean ± S.E.M.) [1]: 1.09 ± .06 % Kg Dose/g | Tissue concentration, Liver (Mean ± S.E.M.) [1]: .36 ± .02 % Kg Dose/g | Tissue concentration, Lung (Mean ± S.E.M.) [1]: .70 ± .06 % Kg Dose/g | Tissue concentration, Muscle (Mean ± S.E.M.) [1]: .25 ± .02 % Kg Dose/g | Tissue concentration, Thyroid (Mean ± S.E.M.) [1]: .76 ± .04 % Kg Dose/g | Tissue concentration, Liver (Mean ± S.E.M.) ([2]; dog, in vivo, iv, 30 min): 0.34 ± .03 % Kg Dose/g | Tissue concentration, Lung (Mean ± S.E.M.) ([2]; dog, in vivo, iv, 30 min): 0.22 ± .06 % Kg Dose/g | Tissue concentration, Muscle (Mean ± S.E.M.) ([2]; dog, in vivo, iv, 30 min): 0.02 ± .00 % Kg Dose/g | Tissue concentration, Thyroid (Mean ± S.E.M.) ([2]; dog, in vivo, iv, 30 min): 0.56 ± .07 % Kg Dose/g | Tissue concentration, Adrenal Cortex (Mean ± S.E.M.) ([2]; dog, in vivo, iv, 120 min): 0.39 ± .05 % Kg Dose/g | Tissue concentration, Adrenal Medulla (Mean ± S.E.M.) ([2]; dog, in vivo, iv, 120 min): 6.29 ± .25 % Kg Dose/g | Tissue concentration, Blood (Mean ± S.E.M.) ([2]; dog, in vivo, iv, 120 min): 0.02 ± .00 % Kg Dose/g | Tissue concentration, Heart (Mean ± S.E.M.) ([2]; dog, in vivo, iv, 120 min): 0.50 ± .10 % Kg Dose/g | Tissue concentration, Liver (Mean ± S.E.M.) ([2]; dog, in vivo, iv, 120 min): .017 ± .05 % Kg Dose/g | Tissue concentration, Lung (Mean ± S.E.M.) ([2]; dog, in vivo, iv, 120 min): 0.46 ± .13 % Kg Dose/g | Tissue concentration, Muscle (Mean ± S.E.M.) ([2]; dog, in vivo, iv, 120 min): 0.04 ± .00 % Kg Dose/g | Tissue concentration, Adrenal Cortex (Mean ± S.E.M.) ([2]; dog, in vivo, iv, 2880 min): 0.10 ± .01 % Kg Dose/g | Tissue concentration, Adrenal Medulla (Mean ± S.E.M.) ([2]; dog, in vivo, iv, 2880 min): 13.6 ± 1.1 % Kg Dose/g | Tissue concentration, Blood (Mean ± S.E.M.) ([2]; dog, in vivo, iv, 2880 min): 0.01 ± .00 % Kg Dose/g | Tissue concentration, Heart (Mean ± S.E.M.) ([2]; dog, in vivo, iv, 2880 min): 0.06 ± .01 % Kg Dose/g | Tissue concentration, Liver (Mean ± S.E.M.) ([2]; dog, in vivo, iv, 2880 min): 0.02 ± .00 % Kg Dose/g | Tissue concentration, Lung (Mean ± S.E.M.) ([2]; dog, in vivo, iv, 2880 min): 0.03 ± .00 % Kg Dose/g | Tissue concentration, Muscle (Mean ± S.E.M.) ([2]; dog, in vivo, iv, 2880 min): 0.02 ± .00 % Kg Dose/g | Tissue concentration, Adrenal Cortex (Mean ± S.E.M.) ([2]; dogs (2), i.v., 30 min, adrenal cortex): 0.61 ± .02 % Kg Dose/g | Tissue concentration, Adrenal Medulla (Mean ± S.E.M.) ([2]; dogs (2), i.v., 30 min, adrenal medulla): 5.35 ± .71 % Kg Dose/g | Tissue concentration, Blood (Mean ± S.E.M.) ([2]; dogs (2), i.v., 30 min, blood): 0.02 ± .00 % Kg Dose/g | Tissue concentration, Heart (Mean ± S.E.M.) ([2]; dogs (2), i.v., 30 min, heart): 0.47 ± .02 % Kg Dose/g | Tissue concentration, Thyroid (Mean ± S.E.M.) ([2]; dogs (2), i.v., 2 hours, thyroid): 0.56 ± .05 % Kg Dose/g | Tissue concentration, Thyroid (Mean ± S.E.M.) ([2]; dogs (2), i.v., 48 hours, thyroid): 1.27 ± .47 % Kg Dose/g | Tissue concentration, Adrenal Cortex (Mean ± S.E.M.) [3]: 0.42 ± .12 % Kg Dose/g | Tissue concentration, Adrenal Medullae (Mean ± S.E.M.) [3]: 2.69 ± .28 % Kg Dose/g | Tissue concentration, Blood (Mean ± S.E.M.) [3]: 0.02 ± .00 % Kg Dose/g | Tissue concentration, Heart (Mean ± S.E.M.) [3]: 0.64 ± .03 % Kg Dose/g | Tissue concentration, Liver (Mean ± S.E.M.) [3]: 0.76 ± .03 % Kg Dose/g | Tissue concentration, Lung (Mean ± S.E.M.) [3]: 0.17 ± .00 % Kg Dose/g | Tissue concentration, Muscle (Mean ± S.E.M.) [3]: 0.02 ± .00 % Kg Dose/g

N=C(N)NCc1cccc([131I])c1 [^131 I-mIBG, I^131 -meta-iodobenzylguanidine]
activity seen in malignant (metastatic) PHEO (Pheochromocytomas (PHEO); another patient with malignant (metastatic) PHEO): only ill-defined activity was seen | scintigrams in PHEO patients (Pheochromocytomas (PHEO); each of eight PHEO patients, 0.5 mCi i.v., 24, 48 and 72 hours): located abnormal collections of activity | patients in whom abnormalities correspond to PHEOs subsequently excised (Pheochromocytomas (PHEO); eight PHEO patients, 0.5 mCi i.v.): 7 of the 8 | scintigraphic image of adrenal glands in control subjects (Pheochromocytomas (PHEO); five hypertensive controls without PHEO, 0.5 mCi i.v., 24, 48 and 72 hours): little or no scintigraphic image of their adrenal glands | activity seen in malignant (metastatic) PHEO (Pheochromocytomas (PHEO); one patient with malignant (metastatic) PHEO): multiple areas of activity were seen in the skull, chest and abdomen | MIBG Adrenal Imaging (adrenal medulla; patient 1 (apparently unaffected, plasma/urine normal), 500 μCi): Nonvisualized | MIBG Adrenal Imaging (adrenal medulla; patient 2 (MEN 2a, plasma/urine normal), 500 μCi): Nonvisualized | MIBG Adrenal Imaging (adrenal medulla; patient 3 (MEN 2a, urine M raised), 500 μCi): Faint bilateral | MIBG Adrenal Imaging (adrenal medulla; patient 4 (MEN 2b, plasma N, urine NM raised), 500 μCi): Distinct bilateral | MIBG Adrenal Imaging (adrenal medulla; patient 5 (MEN 2a, plasma N,E, urine E,NM,M raised), 500 μCi): Distinct bilateral | MIBG Adrenal Imaging (adrenal medulla; patient 6 (MEN 2a, plasma N,E, urine E,NM,M raised), 500 μCi): Asymmetric bilateral | scintigraphy of right adrenal gland (adrenal medulla; patient 6, confirmed at surgery, only irregular area on CT): two distinct tumors | adrenal imaging, patients 1 and 2 (adrenal medulla; patients 1 and 2, pattern recognized by control studies as normal): Neither patient 1 nor patient 2, who was affected with medullary thyroid carcinoma, showed adrenal imaging | percent uptake by the adrenal glands versus hormone values (adrenal medulla; remaining 4 patients (3-6), 500 μCi): increased proportionally to the urine and plasma hormone values | decomposition on storage ([4]; up to 4 days as sulfate salt in water or physiological saline, I-131): no detectable decomposition

N=C(N)NCc1cccc([123I])c1 [I^123 -meta-iodobenzylguanidine]
radio-composition (decomposition) on storage ([4]; up to 4 days as sulfate salt in water or physiological buffered saline, I-123): minimal detectable radio-composition

N=C(N)NCc1cccc(I)c1 [meta-iodobenzylguanidine, Meta-iodobenzylguanidine]
accumulation in adrenergic tissues ([5]; compared with norepinephrine and guanethidine): accumulated in adrenergic tissues in a manner similar to norepinephrine and guanethidine | localization ([5]; heart and adrenal medulla): localizes in the adrenergic neurons of the heart and chromaffin granules of the adrenal medulla
